Reference: article PMC9646841, “A bead-based GPCR phosphorylation immunoassay for high-throughput ligand profiling and GRK inhibitor screening” (Communications Biology, 2022)
Values joined by “and” are separate entries in the source; they are usually repeats but may differ in a detail not shown here. Equal values may be shown once. Square brackets hold non-standard residues; d marks the D form. Peptide text beside a SMILES is read from it. Cha = N[C@@H](CC1CCCCC1)C(=O)O; dCha = N[C@H](CC1CCCCC1)C(=O)O

Key:
C5a1 [1] = target: T1, C5a1 (Homo sapiens, UniProt P21730); test: Total C5a1 loading control (np-C5a1 / anti-HA); format: cell-based
T1 construct: host or cells: Control-HEK293, ΔGRK2/3-HEK293, ΔGRK5/6-HEK293, stably expressing
T1 sequence (P21730 1-350): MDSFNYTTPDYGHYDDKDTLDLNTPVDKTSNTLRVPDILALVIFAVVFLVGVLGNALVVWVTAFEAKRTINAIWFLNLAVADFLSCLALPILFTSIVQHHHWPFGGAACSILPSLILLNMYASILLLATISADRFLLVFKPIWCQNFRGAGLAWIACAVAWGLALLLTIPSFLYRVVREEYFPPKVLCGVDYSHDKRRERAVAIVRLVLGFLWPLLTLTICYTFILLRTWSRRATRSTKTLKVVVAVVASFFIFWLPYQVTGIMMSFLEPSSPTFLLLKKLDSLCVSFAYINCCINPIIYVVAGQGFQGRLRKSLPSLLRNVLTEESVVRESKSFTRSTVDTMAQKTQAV

C5a1 [2] = target: T1, C5a1; test: pS338/pT339-C5a1 7TM phosphorylation assay; format: cell-based; conditions: for pS338/pS339 normalized / pS338/pS339 signal, raw: C028 0.01 µM
[3] = ΔGRK2/3-C5aR1-HEK293, C028 10 µM (concentration series)

N=C(N)NCCC[C@@H](NC(=O)[C@H](CC1CCCCC1)NC(=O)[C@@H](CC1CCCCC1)NC(=O)[C@@H]1CCCN1C(=O)[C@H](CCCCN)NC(=O)[C@@H](N)Cc1ccccc1)C(=O)O [C028, FKP-(D-Cha)-Cha-r] (H-FKP[dCha][Cha][dR]-OH)
np signal, raw (C5a1 [1]; C028 0.01 µM, Control-C5aR1-HEK293): 1.7187 and 1.7849 and 1.2842 and 1.2491 and 1.8947 | np signal, raw (C5a1 [1]; C028 0.01 µM, ΔGRK2/3-C5aR1-HEK293): 1.3719 and 1.658 and 1.494 and 1.3769 and 1.8182 | np signal, raw (C5a1 [1]; C028 0.1 µM, Control-C5aR1-HEK293): 1.8405 and 1.7894 and 1.13 and 1.0755 and 1.6047 | np signal, raw (C5a1 [1]; C028 0.1 µM, ΔGRK2/3-C5aR1-HEK293): 1.6138 and 1.8688 and 1.3994 and 1.4066 and 1.6881 | np signal, raw (C5a1 [1]; C028 0.1 µM, ΔGRK5/6-C5aR1-HEK293): 1.983 and 1.7745 and 1.5114 and 1.8261 and 1.6189 | np signal, raw (C5a1 [1]; C028 0.3 µM, ΔGRK5/6-C5aR1-HEK293): 1.6298 and 1.4921 and 1.6333 and 1.6817 and 1.6758 | np signal, raw (C5a1 [1]; C028 1 µM, ΔGRK2/3-C5aR1-HEK293): 1.3996 and 1.4952 and 2.1996 and 1.4182 and 2.2245 | np signal, raw (C5a1 [1]; C028 1 µM, ΔGRK5/6-C5aR1-HEK293): 1.9501 and 1.5997 and 1.4175 and 1.1243 and 1.5682 | np signal, raw (C5a1 [1]; C028 3 µM, Control-C5aR1-HEK293): 1.9121 and 1.6861 and 1.569 and 1.3939 and 2.1397 | np signal, raw (C5a1 [1]; C028 3 µM, ΔGRK2/3-C5aR1-HEK293): 1.5651 and 1.596 and 2.1319 and 1.2489 and 1.5422 | np signal, raw (C5a1 [1]; C028 3 µM, ΔGRK5/6-C5aR1-HEK293): 1.6842 and 1.511 and 1.6612 and 1.9363 and 1.5067 | np signal, raw (C5a1 [1]; C028 10 µM, Control-C5aR1-HEK293, concentration series): 1.6592 and 1.6457 and 1.7245 and 1.2748 and 1.696 | np signal, raw (C5a1 [1]; C028 10 µM, Control-C5aR1-HEK293, first 0/10 µM pair): 1.6592 and 1.6457 and 1.3473 and 1.1686 and 1.879 | np signal, raw (C5a1 [1]; C028 10 µM, Control-C5aR1-HEK293, last 0/10 µM pair of Control block): 1.9885 and 1.4944 and 1.4087 and 1.155 and 1.5321 | np signal, raw (C5a1 [1]; C028 10 µM, Control-C5aR1-HEK293 beside ΔGRK2/3 block): 2.0332 and 1.1801 and 1.5046 and 1.4934 and 1.6943 | np signal, raw (C5a1 [1]; C028 10 µM, Control-C5aR1-HEK293 beside ΔGRK5/6 block): 1.9038 and 2.0072 and 1.4662 and 1.7694 and 1.271 | np signal, raw (C5a1 [1]; C028 10 µM, ΔGRK2/3-C5aR1-HEK293, concentration series): 1.5246 and 1.7106 and 1.3042 and 1.3389 and 1.7008 | np signal, raw (C5a1 [1]; C028 10 µM, ΔGRK2/3-C5aR1-HEK293, first 0/10 µM pair): 1.2045 and 1.6486 and 1.422 and 1.3225 and 1.7342 | np signal, raw (C5a1 [1]; C028 10 µM, ΔGRK5/6-C5aR1-HEK293, concentration series): 2.2585 and 1.8872 and 1.4472 and 1.4134 and 1.6269 | np signal, raw (C5a1 [1]; C028 10 µM, ΔGRK5/6-C5aR1-HEK293, first 0/10 µM pair): 2.1115 and 2.0551 and 1.5281 and 1.3721 and 1.3579 | np (raw signal) (C5a1 [1]; Control-C5aR1-HEK293, C028 0.01 µM, concentration series): 1.9803 and 1.5907 and 1.3538 and 1.2438 and 1.436 and 1.5903 and 1.7448 and 1.269 | np (raw signal) (C5a1 [1]; Control-C5aR1-HEK293, C028 0.3 µM, concentration series): 1.588 and 1.7265 and 1.5961 and 0.9789 and 1.4851 and 1.7215 and 1.957 and 1.5097 | np (total C5aR1), raw signal (C5a1 [1]; Control-C5aR1-HEK293, C028 0.01 µM): 1.3949 and 1.3266 and 1.5751 and 1.603 and 1.9857 and 2.1902 | np (total C5aR1), raw signal (C5a1 [1]; Control-C5aR1-HEK293, C028 0.1 µM): 1.088 and 1.5141 and 1.6432 and 1.3119 and 2.129 and 1.8032 | np (total C5aR1), raw signal (C5a1 [1]; Control-C5aR1-HEK293, C028 0.3 µM): 1.3568 and 1.8238 and 1.5485 and 1.2855 and 1.9306 and 1.5751 | np (total C5aR1), raw signal (C5a1 [1]; Control-C5aR1-HEK293, C028 1 µM): 1.4754 and 1.6232 and 1.785 and 1.3295 and 1.6944 and 2.063 | np (total C5aR1), raw signal (C5a1 [1]; Control-C5aR1-HEK293, C028 3 µM): 1.2425 and 1.4862 and 1.9242 and 1.5919 and 2.0564 and 1.6025 | np (total C5aR1), raw signal (C5a1 [1]; Control-C5aR1-HEK293 beside ΔGRK5/6 series, C028 10 µM): 2.3386 and 2.3729 and 1.6554 and 1.7709 and 1.3577 and 1.3562 and 1.5255 | np (raw signal) (C5a1 [1]; Control-C5aR1-HEK293 run beside the ΔGRK2/3 block, C028 10 µM): 1.8085 and 2.0631 and 1.4603 and 1.3915 and 1.4955 and 1.1807 | np (raw signal) (C5a1 [1]; Control-C5aR1-HEK293 run beside the ΔGRK5/6 block, C028 10 µM): 1.9033 and 1.7695 and 1.3647 and 1.1555 and 2.1969 and 1.68 and 1.7195 and 1.5597 | np (raw signal) (C5a1 [1]; ΔGRK2/3-C5aR1-HEK293, C028 0.01 µM, concentration series): 1.9037 and 1.8736 and 1.6092 and 1.5411 and 1.8666 and 1.9049 and 1.8208 and 1.3708 | np (raw signal) (C5a1 [1]; ΔGRK2/3-C5aR1-HEK293, C028 0.1 µM, concentration series): 1.8343 and 1.6381 and 1.9187 and 1.6055 and 2.1604 and 1.5161 and 1.9037 and 1.8736 | np (raw signal) (C5a1 [1]; ΔGRK2/3-C5aR1-HEK293, C028 0.3 µM, concentration series): 1.6659 and 1.792 and 1.7372 and 1.7036 and 2.059 and 1.9288 and 1.8343 and 1.6381 | np (raw signal) (C5a1 [1]; ΔGRK2/3-C5aR1-HEK293, C028 1 µM, concentration series): 1.7539 and 1.6924 and 1.7772 and 1.4498 and 2.0307 and 1.5417 and 1.6659 and 1.792 | np (raw signal) (C5a1 [1]; ΔGRK2/3-C5aR1-HEK293, C028 3 µM, concentration series): 1.6846 and 1.3473 and 1.4287 and 1.3661 and 2.0103 and 1.5757 and 1.7539 and 1.6924 | np (total C5aR1), raw signal (C5a1 [1]; ΔGRK2/3-C5aR1-HEK293, C028 0.01 µM): 1.9989 and 2.1791 and 2.1472 and 1.695 and 1.8681 and 1.8947 and 1.79 | np (total C5aR1), raw signal (C5a1 [1]; ΔGRK2/3-C5aR1-HEK293, C028 0.1 µM): 2.1466 and 2.0776 and 2.1938 and 2.0797 and 1.633 and 1.3767 and 1.2578 | np (total C5aR1), raw signal (C5a1 [1]; ΔGRK2/3-C5aR1-HEK293, C028 0.3 µM): 1.9738 and 1.8316 and 2.0611 and 2.0567 and 1.8444 and 1.4691 and 1.6375 | np (total C5aR1), raw signal (C5a1 [1]; ΔGRK2/3-C5aR1-HEK293, C028 1 µM): 1.8294 and 2.1206 and 2.1815 and 1.9867 and 1.4524 and 1.8069 and 1.3881 | np (total C5aR1), raw signal (C5a1 [1]; ΔGRK2/3-C5aR1-HEK293, C028 3 µM): 1.9342 and 1.5491 and 2.0615 and 1.8761 and 1.3783 and 1.8045 and 1.3094 | np (total C5aR1), raw signal (C5a1 [1]; ΔGRK2/3-C5aR1-HEK293, C028 10 µM (0/10 µM pair)): 1.6776 and 1.597 and 2.0065 and 1.9839 and 1.7864 and 1.8111 and 1.5147 | np (raw signal) (C5a1 [1]; [3]): 1.6617 and 1.8239 and 1.3136 and 1.3724 and 1.8559 and 1.6 | np (total C5aR1), raw signal (C5a1 [1]; [3]): 2.0002 and 1.769 and 2.052 and 2.2047 and 1.6138 and 1.7275 and 1.9566 | np (raw signal) (C5a1 [1]; ΔGRK5/6-C5aR1-HEK293, C028 0.3 µM, concentration series): 1.7318 and 1.8541 and 1.5067 and 1.2715 and 1.8493 and 2.0046 and 1.7672 and 1.7676 | np (raw signal) (C5a1 [1]; ΔGRK5/6-C5aR1-HEK293, C028 1 µM, concentration series): 2.0252 and 1.7968 and 1.4934 and 1.2437 and 2.0647 and 1.7841 and 1.4601 and 1.5886 | np (raw signal) (C5a1 [1]; ΔGRK5/6-C5aR1-HEK293, C028 10 µM, first 0/10 µM column pair): 1.7829 and 1.9246 and 1.5744 and 1.3841 and 1.8642 and 1.9552 and 1.5996 and 1.6914 | np (total C5aR1), raw signal (C5a1 [1]; ΔGRK5/6-C5aR1-HEK293, C028 10 µM (0/10 µM pair)): 1.7545 and 1.6551 and 1.4386 and 1.778 and 1.4304 and 1.6743 and 2.0075 | np (total C5aR1), raw signal (C5a1 [1]; ΔGRK5/6-C5aR1-HEK293, C028 10 µM (concentration series)): 1.8811 and 1.8348 and 1.6561 and 1.4006 and 1.0888 and 1.1737 and 1.1522 | OD405 max pS338/pT339-C5a1 (C5a1 [2]): 0.97 | OD405 min pS338/pT339-C5a1 (C5a1 [2]): 0.05 | pS338/pS339 normalized (C5a1 [2]; Control-C5aR1-HEK293): 0.99% and 0.92% and 2.21% and 3.33% and 1.14% and 2.13% and -1.29% and -0.74% | pS338/pS339 signal, raw (C5a1 [2]; Control-C5aR1-HEK293): 0.1155 and 0.1223 and 0.1459 and 0.1501 and 0.1235 and 0.1345 and 0.146 and 0.1476 | pS338/pS339 normalized (C5a1 [2]; ΔGRK2/3-C5aR1-HEK293): 2.29% and 0.59% and -0.76% and -0.97% and -2.55% and -1.82% and -0.06% and 0.89% | pS338/pS339 signal, raw (C5a1 [2]; ΔGRK2/3-C5aR1-HEK293): 0.0952 and 0.0932 and 0.1355 and 0.1425 and 0.1714 and 0.1765 and 0.119 and 0.1119 | pS338/pS339 normalized (C5a1 [2]; ΔGRK5/6-C5aR1-HEK293): -0.52% and 1.83% and 5.79% and 7.02% and 0.41% and 6.78% and -2.15% and -0.66%
